According to patent US8686044B2, “Amide derivative, pest control agent containing the amide derivative, and use of the amide derivative” (Mitsui Chemicals Agro, Inc., priority 2008, dated 2014):

What was measured:
Format in all cases: in vivo
Spodoptera litura = test: Pesticidal test against Spodoptera litura (cabbage leaf dip); conditions: foliar, 144 h, concentration 1 ppm, 2-stage larvae, examined after 6 days, 25° C., read-out: pesticidal rate
In short: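 Cabbage leaf pieces dipped 30 seconds in compound solution at a predetermined concentration and air-dried, then offered to second-stage larvae, five per group in two replicates. Held at 25° C. Living and dead larvae counted after 6 days.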

Plutella xylostella = test: Pesticidal test against Plutella xylostella (cabbage leaf dip); conditions: foliar, 144 h, concentration 1 ppm, 2-stage larvae, examined after 6 days, 25° C., read-out: pesticidal rate
In short: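 Cabbage leaf pieces dipped 30 s in test solution at a predetermined concentration, air-dried, then offered to 2nd-instar larvae, five per group in duplicate. Held at 25° C; living and dead larvae counted after 6 days.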

Laodelphax striatellus = test: Pesticidal test against Laodelphax striatellus (rice seedling spray); conditions: 144 h, concentration 100 ppm, 3-stage larvae, examined after 6 days, 25° C., read-out: pesticidal rate
In short: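 Rice seedlings sprayed with 2.5 ml acetone solution of compound at a predetermined concentration, air-dried, then infested with third-stage Laodelphax striatellus larvae in capped water-containing tubes at 25 °C. Living and dead insects counted after 6 days; ten larvae per group, two replicates.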

Musca domestica = test: Pesticidal test against Musca domestica (petri dish dry film); conditions: 24 h, concentration 100 ppm, female adults, examined after 1 day, 25° C., read-out: pesticidal rate
In short: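 Dry film from 1 ml acetone solution of compound at a predetermined concentration, air-dried in a 9 cm petri dish; female adult flies released and dish capped. Held at 25° C; living and dead counted after 1 day. Five insects per group, two replicates.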

Blattella germanica = test: Pesticidal test against Blattella germanica (petri dish dry film); conditions: 24 h, concentration 100 ppm, female adults, examined after 1 day, 25° C., read-out: pesticidal rate
Method: Pesticidal Test against Blattella germanica
1 ml of an acetone solution in which a test compound had been prepared at a predetermined concentration was added dropwise to a petri dish having a diameter of 9 cm, and air-dried, and then the female adults of Blattella germanica were released and the petri dish was capped. They were left to stand in a thermostatic chamber at 25° C., and the numbers of the living pests and the dead pests were examined after 1 day. The test was carried out with five larvae per group in two replicates.

O=C(Nc1cccc(C(=O)Nc2c(Br)cc(C(F)(C(F)(F)F)C(F)(F)F)cc2C(F)(F)F)c1F)c1ccc(Cl)nc1 [6-1617]
≥ 70%: pest or weed control at 1 ppm (Spodoptera litura) | pest or weed control at 1 ppm (Plutella xylostella) | pest or weed control at 100 ppm (Laodelphax striatellus) | pest or weed control at 100 ppm (Musca domestica) | pest or weed control at 100 ppm (Blattella germanica)

CN(C(=O)c1c(F)cccc1F)c1cccc(C(=O)Nc2c(Br)cc(C(F)(C(F)(F)F)C(F)(F)F)cc2C(F)(F)F)c1F [7-1596]
≥ 70%: pest or weed control at 1 ppm (Spodoptera litura) | pest or weed control at 1 ppm (Plutella xylostella) | pest or weed control at 100 ppm (Laodelphax striatellus) | pest or weed control at 100 ppm (Musca domestica) | pest or weed control at 100 ppm (Blattella germanica)

CN(C(=O)c1cccnc1Cl)c1cccc(C(=O)Nc2c(I)cc(C(F)(C(F)(F)F)C(F)(F)F)cc2C(F)(F)F)c1F [7-1766]
≥ 70%: pest or weed control at 1 ppm (Spodoptera litura) | pest or weed control at 1 ppm (Plutella xylostella) | pest or weed control at 100 ppm (Laodelphax striatellus) | pest or weed control at 100 ppm (Musca domestica) | pest or weed control at 100 ppm (Blattella germanica)

O=C(Nc1cccc(C(=O)Nc2c(Br)cc(C(F)(C(F)(F)F)C(F)(F)F)cc2Br)c1F)c1ccc(F)cc1 [6-1107]
≥ 70%: pest or weed control at 1 ppm (Spodoptera litura) | pest or weed control at 1 ppm (Plutella xylostella) | pest or weed control at 100 ppm (Laodelphax striatellus) | pest or weed control at 100 ppm (Musca domestica) | pest or weed control at 100 ppm (Blattella germanica)

O=C(Nc1cccc(C(=O)Nc2c(I)cc(C(F)(C(F)(F)F)C(F)(F)C(F)(F)F)cc2I)c1F)c1ccccc1 (stereo not shown) [6-1338]
≥ 70%: pest or weed control at 1 ppm (Spodoptera litura) | pest or weed control at 1 ppm (Plutella xylostella) | pest or weed control at 100 ppm (Laodelphax striatellus) | pest or weed control at 100 ppm (Musca domestica) | pest or weed control at 100 ppm (Blattella germanica)

O=C(Nc1cccc(C(=O)Nc2c(Br)cc(C(F)(C(F)(F)F)C(F)(F)C(F)(F)F)cc2Br)c1F)c1cccnc1Cl (stereo not shown) [6-1218]
≥ 70%: pest or weed control at 1 ppm (Spodoptera litura) | pest or weed control at 1 ppm (Plutella xylostella) | pest or weed control at 100 ppm (Laodelphax striatellus) | pest or weed control at 100 ppm (Musca domestica) | pest or weed control at 100 ppm (Blattella germanica)

CN(C(=O)c1c(F)cccc1F)c1cccc(C(=O)Nc2c(I)cc(C(F)(C(F)(F)F)C(F)(F)F)cc2C(F)(F)F)c1 [7-446]
≥ 70%: pest or weed control at 1 ppm (Spodoptera litura) | pest or weed control at 1 ppm (Plutella xylostella) | pest or weed control at 100 ppm (Laodelphax striatellus) | pest or weed control at 100 ppm (Musca domestica) | pest or weed control at 100 ppm (Blattella germanica)

CN(C(=O)c1ccccc1F)c1cccc(C(=O)Nc2c(Br)cc(C(F)(C(F)(F)F)C(F)(F)F)cc2C(F)(F)F)c1F [7-1575]
≥ 70%: pest or weed control at 1 ppm (Spodoptera litura) | pest or weed control at 1 ppm (Plutella xylostella) | pest or weed control at 100 ppm (Laodelphax striatellus) | pest or weed control at 100 ppm (Musca domestica) | pest or weed control at 100 ppm (Blattella germanica)

CN(C(=O)c1cccnc1Cl)c1cccc(C(=O)Nc2c(I)cc(C(F)(C(F)(F)F)C(F)(F)F)cc2I)c1F [7-1296]
≥ 70%: pest or weed control at 1 ppm (Spodoptera litura) | pest or weed control at 1 ppm (Plutella xylostella) | pest or weed control at 100 ppm (Laodelphax striatellus) | pest or weed control at 100 ppm (Musca domestica) | pest or weed control at 100 ppm (Blattella germanica)

CN(C(=O)c1ccc(Cl)nc1)c1cccc(C(=O)Nc2c(I)cc(C(F)(C(F)(F)F)C(F)(F)C(F)(F)F)cc2I)c1F (stereo not shown) [7-1381]
≥ 70%: pest or weed control at 1 ppm (Spodoptera litura) | pest or weed control at 1 ppm (Plutella xylostella) | pest or weed control at 100 ppm (Laodelphax striatellus) | pest or weed control at 100 ppm (Musca domestica) | pest or weed control at 100 ppm (Blattella germanica)

CN(C(=O)c1cccnc1Cl)c1cccc(C(=O)Nc2c(Br)cc(C(F)(C(F)(F)F)C(F)(F)C(F)(F)F)cc2Br)c1 (stereo not shown) [7-57]
≥ 70%: pest or weed control at 1 ppm (Spodoptera litura) | pest or weed control at 1 ppm (Plutella xylostella) | pest or weed control at 100 ppm (Laodelphax striatellus) | pest or weed control at 100 ppm (Musca domestica) | pest or weed control at 100 ppm (Blattella germanica)

O=C(Nc1cccc(C(=O)Nc2c(Br)cc(C(F)(C(F)(F)F)C(F)(F)C(F)(F)F)cc2Br)c1F)c1cccc(F)c1 (stereo not shown) [6-1184]
≥ 70%: pest or weed control at 1 ppm (Spodoptera litura) | pest or weed control at 1 ppm (Plutella xylostella) | pest or weed control at 100 ppm (Laodelphax striatellus) | pest or weed control at 100 ppm (Musca domestica) | pest or weed control at 100 ppm (Blattella germanica)

O=C(Nc1cccc(C(=O)Nc2c(Br)cc(C(F)(C(F)(F)F)C(F)(F)F)cc2Br)c1F)c1ccc(Cl)nc1 [6-1147]
≥ 70%: pest or weed control at 1 ppm (Spodoptera litura) | pest or weed control at 1 ppm (Plutella xylostella) | pest or weed control at 100 ppm (Laodelphax striatellus) | pest or weed control at 100 ppm (Musca domestica) | pest or weed control at 100 ppm (Blattella germanica)

CN(C(=O)c1c(F)cccc1F)c1cccc(C(=O)Nc2c(I)cc(C(F)(C(F)(F)F)C(F)(F)F)cc2I)c1F [7-1282]
≥ 70%: pest or weed control at 1 ppm (Spodoptera litura) | pest or weed control at 1 ppm (Plutella xylostella) | pest or weed control at 100 ppm (Laodelphax striatellus) | pest or weed control at 100 ppm (Musca domestica) | pest or weed control at 100 ppm (Blattella germanica)

O=C(Nc1cccc(C(=O)Nc2c(Br)cc(C(F)(C(F)(F)F)C(F)(F)C(F)(F)F)cc2C(F)(F)F)c1)c1ccccc1 (stereo not shown) [6-346]
≥ 70%: pest or weed control at 1 ppm (Spodoptera litura) | pest or weed control at 1 ppm (Plutella xylostella) | pest or weed control at 100 ppm (Laodelphax striatellus) | pest or weed control at 100 ppm (Musca domestica) | pest or weed control at 100 ppm (Blattella germanica)

O=C(Nc1c(Br)cc(C(F)(C(F)(F)F)C(F)(F)C(F)(F)F)cc1Br)c1cccc(NC(=O)c2c(F)cccc2F)c1 (stereo not shown) [6-47]
≥ 70%: pest or weed control at 1 ppm (Spodoptera litura) | pest or weed control at 1 ppm (Plutella xylostella) | pest or weed control at 100 ppm (Laodelphax striatellus) | pest or weed control at 100 ppm (Musca domestica) | pest or weed control at 100 ppm (Blattella germanica)

CN(C(=O)c1c(F)cccc1F)c1cccc(C(=O)Nc2c(I)cc(C(F)(C(F)(F)F)C(F)(F)F)cc2C(F)(F)F)c1F [7-1752]
≥ 70%: pest or weed control at 1 ppm (Spodoptera litura) | pest or weed control at 1 ppm (Plutella xylostella) | pest or weed control at 100 ppm (Laodelphax striatellus) | pest or weed control at 100 ppm (Musca domestica) | pest or weed control at 100 ppm (Blattella germanica)

O=C(Nc1c(Br)cc(C(F)(C(F)(F)F)C(F)(F)C(F)(F)F)cc1C(F)(F)F)c1cccc(NC(=O)c2c(F)cccc2F)c1 (stereo not shown) [6-368]
≥ 70%: pest or weed control at 1 ppm (Spodoptera litura) | pest or weed control at 1 ppm (Plutella xylostella) | pest or weed control at 100 ppm (Laodelphax striatellus) | pest or weed control at 100 ppm (Musca domestica) | pest or weed control at 100 ppm (Blattella germanica)

CN(C(=O)c1ccccc1F)c1cccc(C(=O)Nc2c(Br)cc(C(F)(C(F)(F)F)C(F)(F)F)cc2Br)c1F [7-1105]
≥ 70%: pest or weed control at 1 ppm (Spodoptera litura) | pest or weed control at 1 ppm (Plutella xylostella) | pest or weed control at 100 ppm (Laodelphax striatellus) | pest or weed control at 100 ppm (Musca domestica) | pest or weed control at 100 ppm (Blattella germanica)

O=C(Nc1cccc(C(=O)Nc2c(I)cc(C(F)(C(F)(F)F)C(F)(F)F)cc2C(F)(F)F)c1F)c1ccccc1F [6-1731]
≥ 70%: pest or weed control at 1 ppm (Spodoptera litura) | pest or weed control at 1 ppm (Plutella xylostella) | pest or weed control at 100 ppm (Laodelphax striatellus) | pest or weed control at 100 ppm (Musca domestica) | pest or weed control at 100 ppm (Blattella germanica)

O=C(Nc1c(Br)cc(C(F)(C(F)(F)F)C(F)(F)C(F)(F)F)cc1Br)c1cccc(NC(=O)c2c(F)cccc2F)c1F (stereo not shown) [6-1204]
≥ 70%: pest or weed control at 1 ppm (Spodoptera litura) | pest or weed control at 1 ppm (Plutella xylostella) | pest or weed control at 100 ppm (Laodelphax striatellus) | pest or weed control at 100 ppm (Musca domestica) | pest or weed control at 100 ppm (Blattella germanica)

O=C(Nc1c(Br)cc(C(F)(C(F)(F)F)C(F)(F)C(F)(F)F)cc1Br)c1cccc(NC(=O)c2ccccc2F)c1 (stereo not shown) [6-39]
≥ 70%: pest or weed control at 1 ppm (Spodoptera litura) | pest or weed control at 1 ppm (Plutella xylostella) | pest or weed control at 100 ppm (Laodelphax striatellus) | pest or weed control at 100 ppm (Musca domestica) | pest or weed control at 100 ppm (Blattella germanica)

O=C(Nc1c(Br)cc(C(F)(C(F)(F)F)C(F)(F)F)cc1Br)c1cccc(NC(=O)c2c(F)cccc2F)c1F [6-1126]
≥ 70%: pest or weed control at 1 ppm (Spodoptera litura) | pest or weed control at 1 ppm (Plutella xylostella) | pest or weed control at 100 ppm (Laodelphax striatellus) | pest or weed control at 100 ppm (Musca domestica) | pest or weed control at 100 ppm (Blattella germanica)
